In patent US20240156090A1, “SUSPENSION CONCENTRATE ACYLHYDRAZONE APYRASE INHIBITOR FORMULATION” (Texas Crop Science, priority 2022, published 2024):

Legend:
Assay type in all cases: physicochemical
[1] = Solubility of Compound 1 in water
[2] = Long term chemical stability of aqueous suspension concentrate as a function of pH, HPLC (Example 7); details: 30 wt % suspension concentrate
Description: Method: An aqueous suspension concentrate was prepared with the following composition: 30 wt % Compound 1, 2.5 wt % tristyrylphenol ethoxylate surfactant, 2.0 wt % ethyleneoxide-propyleneoxide block co-polymeric dispersant, 5.0 wt % propylene glycol freeze protectant, 0.1 wt % silicone oil antifoam, 52.4% distilled water, and after 2 hours of milling were added 8.0 wt % viscosity modifier gel comprising 2.0% xanthan and 1.0% biocide in water. Aliquots of this suspension were taken and adjusted to pH 6, 7 and 8 with respectively 10 wt % sulfuric acid, pH10 borate buffer and 10 wt % sodium hydroxide. The three samples were sub-divided and stored at room temperature (RT, approximately 25° C.) and 38° C. Control samples were stored at 0° C. for reference. Aliquots were withdrawn periodically and diluted in acetonitrile for analysis by HPLC.

[3] = Chemical stability as a function of pH in PBS (Example 6); details: for remaining amount of Compound 1: 5 μM
Description: A working solution of Compound 1 was prepared in dimethyl sulfoxide at a concentration of 500 μM. 2 μL of the working solution and 198 μL of PBS pH 4.5 or PBS pH 7.4 were added into glass vials to achieve a final concentration of 5 μM. The setup was performed in duplicate. Vials were incubated at 37° C. at 60 rpm in a water bath and taken at designated time points of 0, 2, 4, 6 and 24 hours. For each time point, the incubations were terminated with 1000 μL cold acetonitrile containing internal analytical reference standards. Samples were vortexed for 1 minute then centrifuged at RT at 2500 g for 10 minutes. Aliquots of 200 μL of the supernatant were used for LC-MS/MS analysis.

C/C(=N\NC(=O)c1cccc(C)c1)c1ccc2ccccc2c1 [Compound 1, (E)-3-methyl-N′-(1-(naphthalen-2-yl)ethylidene)benzohydrazide]
solubility [1]: < 5 µM
amount of Compound 1 remaining ([2]; pH 6 sample as printed in the last sentence of b183, 38° C., 1 month): 99%
amount of Compound 1 remaining ([2]; pH 6 sample as printed in the last sentence of b183, 38° C., 9 months): 103%
amount of Compound 1 remaining ([2]; pH 6 sample, 38° C., 1 month): 103%
amount of Compound 1 remaining ([2]; pH 6 sample, 38° C., 9 months): 94%
amount of Compound 1 remaining ([2]; pH 6 sample, RT, 1 month): 99%
amount of Compound 1 remaining ([2]; pH 6 sample, RT, 9 months): 86%
amount of Compound 1 remaining ([2]; pH 7 sample, 38° C., 1 month): 104%
amount of Compound 1 remaining ([2]; pH 7 sample, 38° C., 9 months): 89%
amount of Compound 1 remaining ([2]; pH 7 sample, RT, 1 month): 103%
amount of Compound 1 remaining ([2]; pH 7 sample, RT, 9 months): 76%
amount of Compound 1 remaining ([2]; pH 8 sample, RT, 1 month): 99%
amount of Compound 1 remaining ([2]; pH 8 sample, RT, 9 months): 102%
remaining amount of Compound 1 ([3]; PBS pH 4.5, 37° C., 0 hr): 100%
remaining amount of Compound 1 ([3]; PBS pH 4.5, 37° C., 2 hr): 62.3%
remaining amount of Compound 1 ([3]; PBS pH 4.5, 37° C., 4 hr): 33.7%
remaining amount of Compound 1 ([3]; PBS pH 4.5, 37° C., 6 hr): 29.2%
remaining amount of Compound 1 ([3]; PBS pH 4.5, 37° C., 24 hr): 3.1%
remaining amount of Compound 1 ([3]; PBS pH 7.4, 37° C., 0 hr): 100%
remaining amount of Compound 1 ([3]; PBS pH 7.4, 37° C., 2 hr): 112.4%
remaining amount of Compound 1 ([3]; PBS pH 7.4, 37° C., 4 hr): 96.2%
remaining amount of Compound 1 ([3]; PBS pH 7.4, 37° C., 6 hr): 97.8%
remaining amount of Compound 1 ([3]; PBS pH 7.4, 37° C., 24 hr): 91.1%
half-life at 5 μM ([3]; mildly acidic conditions (PBS pH 4.5), 37° C., read-out: apparent half-life): > 2 h
estimated half-life of actual degradation in solution ([3]; mildly acidic conditions, corrected for solubility below 5 μM): below one
